From patent publication US20110313041A1 (priority 2008, published 2011)
Where two headings read alike, the source gives them in different places.

Assays:
[1] = treatment of weakness in metabolic activity with pantothenic acid-CoA; assay type: in vivo, human; conditions: intake in a large amount
Excerpt: The invention is based of the surprising finding of Mr.
Muscle weakness and pain, weakness, respiratory weakness, mental exhaustion, and gastric problems have mainly been treated with pantothenic acid-CoA,-buk, vitamins and amino acids.
After improvement and discontinuation of the treatment the symptoms returned after a short interval. Ultimately, the problems could be reduced and neutralised through re-treatment. Only with the normalization of the function of the digestive tract, the absorption of pantothenic acid-CoA from food in the stomach could be reproduced, and the treatment was dispensable.
Disturbed gastric functions and/or depletion of mitochondrial reserves in Myasthenia, autism, chronic fatigue syndrome appears in the fading of the yellowing of the urine. […] The current optimum, the proof of the success of the pantothenic acid-CoA treatment is reached when harmless acetylcholine surplus reactions responses in the bladder, stomach or intestines occur.

[2] = cited from earlier work; for side effects: Alzheimer's disease patients; for condition of Alzheimer's disease patients: after administration
[3] = test system: smooth muscles of lachrymal gland, bladder, stomach, intestine; assay: response experiment to sublingual/buccal Panthenol under Acetylcholinersterase-inhibition; assay type: in vivo, human; conditions: 2 g Panthenol Tbl. sublingual/buccal
Method: Immediately afterwards, response experiment to sublingual/buccal applied 2 g-Panthenol Tbl. was executed. […] After its decay and continuation of the breakfast with bread the same reactions in bladder, womb and bowel 10 minutes later repeated with time shortened duration.
Acetylcholine, the natural excitation transmitter from the nerve to the muscle effects striped muscles in concentrations of 10^−6 g/l, smooth muscles already in concentrations of 10^−16 g/l. (4) These “adverse” reactions are contractions of smooth muscles of lachrymal gland, bladder, stomach, intestine, caused by there suddenly synthesized acetylcholine, which exceeds the Response threshold that is 10^−16 grams per liter of acetylcholine in smooth muscles: • a) within 10 minutes of ingestion into the stomach and after the end of reaction; • b) within 10 minutes of sublingual/buccal absorption of 2000 mg Tbl Panthenol, while Acetylcholinersterase-inhibition amongst 140 mg Neostgminbromid is existing. […] (13)

[4] = target: T1, ACH Esterase (Homo sapiens, UniProt P22303); conditions: 30 mg PB, soldiers, cited from earlier work
T1 construct: endogenous in cells
T1 sequence (P22303 32-614): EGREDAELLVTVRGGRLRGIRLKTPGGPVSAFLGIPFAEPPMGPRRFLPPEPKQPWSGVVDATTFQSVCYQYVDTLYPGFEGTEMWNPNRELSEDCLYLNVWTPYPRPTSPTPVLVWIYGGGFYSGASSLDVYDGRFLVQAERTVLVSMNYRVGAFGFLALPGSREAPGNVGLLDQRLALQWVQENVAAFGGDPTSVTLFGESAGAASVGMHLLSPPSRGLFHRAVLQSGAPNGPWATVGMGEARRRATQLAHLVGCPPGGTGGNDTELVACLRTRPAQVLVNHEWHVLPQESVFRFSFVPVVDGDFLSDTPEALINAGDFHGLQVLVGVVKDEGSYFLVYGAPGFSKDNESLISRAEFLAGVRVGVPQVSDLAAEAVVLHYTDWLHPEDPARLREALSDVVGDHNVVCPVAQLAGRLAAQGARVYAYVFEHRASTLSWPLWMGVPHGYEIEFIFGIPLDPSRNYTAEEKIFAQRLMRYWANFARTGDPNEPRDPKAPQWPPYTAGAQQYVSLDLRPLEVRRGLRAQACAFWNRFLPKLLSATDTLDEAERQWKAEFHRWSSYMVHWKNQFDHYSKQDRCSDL

CC(C)(CO)[C@@H](O)C(=O)NCCC(=O)O [pantothenic acid, Pantothenic acid]
effect on symptoms caused by weakness in metabolic activity [1]: beneficial effect

CCN(C)C(=O)Oc1cccc([C@H](C)N(C)C)c1 [Rivastigmin]
side effects [2]: nausea, vomiting, diarrhea and cramps
condition of Alzheimer's disease patients [2]: improvement of their condition

CC(C)(CO)[C@@H](O)C(=O)NCCCO [Panthenol]
reaction to first application of Panthenol ([3]; first application, under 140 mg Neostigminbromid): the same adverse reaction started with a similar duration
reaction to anew application of Panthenol ([3]; second application after continued breakfast): the same adverse reaction started, but delayed and lasted for less

pantothenic acid-CoA
effect on symptoms caused by weakness in metabolic activity [1]: beneficial effect

Nc1c2c(nc3ccccc13)CCCC2 [Tacrine]
side effects [2]: nausea, vomiting, diarrhea and cramps
condition of Alzheimer's disease patients [2]: improvement of their condition

CN(C)C(=O)Oc1ccc[n+](C)c1 [Pyridostigminbromid]
adverse cholinergic reactions [4]: nausea, vomiting, stomach cramps, diarrhea, urination, increased salivation, sweating and muscle spasm
adverse cholinergic reactions ([4]; listed as pyridostigmine bromide): nausea, vomiting, abdominal Cramps, diarrhea, increased salivation, sweating, muscle Cramps
